These results are taken from patent US5089392A, “Fluorogenic substrates for measurement of lysosomal enzyme activities within intact cells” (The United States of America as represented by of the …, priority 1990, dated 1992).

The test system of series [1] is β-galactosidase. The series is described as follows: Cell-free systems that have β-galactosidase activity. It counts as biochemical.
For series [2], the target named is T1, lysosomal β-galactosidase (Homo sapiens, UniProt P16278).
T1 sequence (P16278 29-677): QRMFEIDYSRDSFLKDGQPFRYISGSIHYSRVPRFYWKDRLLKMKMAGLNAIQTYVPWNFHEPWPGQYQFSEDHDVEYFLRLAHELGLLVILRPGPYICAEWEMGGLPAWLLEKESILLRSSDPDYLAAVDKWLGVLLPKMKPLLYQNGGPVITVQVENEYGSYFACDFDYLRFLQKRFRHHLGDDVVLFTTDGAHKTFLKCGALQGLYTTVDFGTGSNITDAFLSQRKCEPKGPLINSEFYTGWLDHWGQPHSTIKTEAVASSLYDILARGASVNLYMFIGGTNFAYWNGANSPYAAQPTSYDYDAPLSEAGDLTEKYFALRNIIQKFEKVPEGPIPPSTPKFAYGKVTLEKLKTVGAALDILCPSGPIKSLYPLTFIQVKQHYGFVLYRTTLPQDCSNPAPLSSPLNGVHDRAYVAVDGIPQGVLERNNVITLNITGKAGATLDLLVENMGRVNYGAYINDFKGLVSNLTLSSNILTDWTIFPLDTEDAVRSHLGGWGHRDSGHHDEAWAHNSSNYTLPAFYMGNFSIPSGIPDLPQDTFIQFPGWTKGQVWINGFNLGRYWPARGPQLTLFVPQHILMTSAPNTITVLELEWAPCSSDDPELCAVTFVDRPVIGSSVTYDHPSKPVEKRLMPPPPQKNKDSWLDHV
The series is described as follows: Loading and intracellular hydrolysis in intact human skin fibroblasts in culture (fluorescence scanning of 96-well plates, fluorescence microscopy). Type of series: cell-based. The procedure:
Loading of Im-DCH-β-Gal(OAc)., 4, into human skin fibroblasts in culture was accomplished as follows. A 20 mM solution of 4 in ethanol was injected via syringe into McCoy's medium to give a 0.1 mM final concentration of fluorogenic substrate. The substrate was further dispersed in the medium by sonication with a W140 Sonifier (two 10 second pulses on power setting of 3). After incubation for 24 hours in serum-free McCoy's medium, cells were loaded with 4 by replacement of the medium with medium containing 0.1 mM substrate. Excess Im-DCH-β-Gal(OAc) may be removed by rinsing the cells, after which the cells may be further incubated in serum free McCoy's medium. […] Excitation (Xenon lamp) through a 360 nm bandpass filter with 10% transmittance at 310 and 385 nm. Emission through a chromatic beam splitter mirror that transmits fully above 405 nm plus a long pass filter with a transmittance of 1% at 408 nm and 10% at 412 nm. Enzymatic hydrolysis was followed by scanning of the loaded cells in a 96-well tissue culture plate with a Dynatech Microfluorometer. Quantitation of product formation was achieved by comparison of the fluorescence generated within individual wells with a standard curve that was obtained from known concentrations of the fluorescent product, 3.
Decreased activity was measured in GM1 cells (12-16% of normal) by fluorescence scanning of 96-well plates. […] In contrast, normal cells are nonfluorescent 24 hours after loading, having hydrolysed their substrate and released the fluorescent product into the media.

Series [3] can be described thus: pKa of the Im-DCH fluorophor (imidazole moiety, phenol, excited state). It counts as physicochemical. The source says: This term refers to moderately basic amines that concentrate (via acid-base equilibria) in low pH organelles such as lysosomes. For Im-DCH in compounds 4 and 5, the N-alkyl imidazole moiety, with a pKa of approximately 7, serves this function. This lysosomotropic property accounts for a first important attribute of enzyme substrates based upon Im-DCH that is, concentration within lysosomes to ensure that sufficient substrate is concentrated within the lysosomes in order to yield a readily detectable fluorescent signal.
(§1) Two other advantages of the fluorophors of the present invention derive from their physical and optical properties: (1) The low pKa of the phenol in Im-DCH (pKa-5.6) allows the maximal fluoroscence (excitation at 385 nm, detection at 460 nm) to be generated at physiological pH values as well as the low pH conditions within lysosomes. The extremely low pKa of the excited state of Im-DCH (pKa*=0.5) permits strong fluorescence to be measured in solutions as acidic as pH 2-3. By proper choice of spectral parameters (excitation at 365 nm, detection at 460 nm), the fluorescence becomes essentially independent of pH, with a fluorescence intensity at pH 2 that is 60% of the maximum. Ratio measurements of fluorescence (emission at 460 nm with excitation at 365 and 385 nm) also provide an estimate of the pH at the site of enzymatic hydrolysis. (2) Shifts in both the absorption and emission spectra occur upon the hydrolysis of glycosides of Im-DCH to give free Im-DCH. This permits the detection of small amounts of enzymatic hydrolysis in the presence of a very large excess of substrate. For example, at 385 nm excitation and 460 nm detection, the ratio of fluoroescence of the hydrolysis product, Im-DCH, to intact Im-DCH-β-Gal is 620:1. […] It is then deacetylated intracellularly to generate the enzymatically active substrate.

Series [4] in a line: Fluorescence properties of Im-DCH and its galactoside. It counts as physicochemical. The conditions noted are these: excitation at 365 nm, detection at 460 nm.
Excerpt: as §1

For series [5], the target named is T1, lysosomal β-galactosidase. The series is described as follows: In vitro hydrolysis of the fluorogenic substrate by fibroblast lysates. Type of series: biochemical. The procedure: The ability of 5 to serve as a fluorogenic substrate was tested using fibroblasts derived from patients with GM1 gangliosidosis, a hereditary deficiency of lysosomal β-galactosidase.

In the case of `CC(=O)OC[C@H]1O[C@@H](Oc2ccc(OCCCCn3ccnc3)c(C#N)c2C#N)[C@H](OC(C)=O)[C@@H](OC(C)=O)[C@H]1OC(C)=O` [Compound 4, β-D-galactopyranoside of 2,3-dicyano-4-[4-(1-imidazolyl)-butoxy]-phenol-2,3,4,6-tetra-O-acetate], in series [1], the “activity as a substrate in cell-free systems” value is “inactive”. Moreover, the “hydrolysis activity in intact GM1 cells relative to normal” value in series [2] (GM1 cells, fluorescence scanning of 96-well plates) was 12-16 % of normal. In addition, in series [2] (GM1 fibroblasts, fluorescence microscopy), the “intracellular localization of fluorescence in GM1 fibroblasts” value was “initial perinuclear clustering followed within 24 hours by sequestration into vacuoles”. Further, the “specificity of the impaired hydrolysis in GM1 gangliosidosis lines” value in series [2] (comparison with cell lines expressing other lysosomal storage disorders) is listed as “specific for their lysosomal β-galactosidase deficiency”. The “uptake by intact fibroblasts” value in series [2] (human skin fibroblasts, 0.1 mM substrate) is given as “taken up by intact fibroblasts”. Besides, the “fluorescence of normal cells after loading” value in series [2] (normal fibroblasts, 24 hours after loading) is given as “nonfluorescent”.

Regarding `Cl.N#Cc1c(O)ccc(OCCCCn2ccnc2)c1C#N` [Compound 3, 2,3-dicyano-4-[4-(1-imidazolyl)-butoxy]-phenol hydrochloride salt], in series [3], the “pKa of the phenol” value is recorded as 5.6. For the same molecule, in series [3] (excited state), the “pKa of the excited state (pKa*)” value was 0.5. The “pKa of the N-alkyl imidazole moiety” value in series [3] (lysosomotropic amine moiety of Im-DCH in compounds 4 and 5) is “approximately 7”. Further, the “fluorescence intensity at pH 2 relative to the maximum” value in series [4] is 60%.

Turning to `N#Cc1c(OCCCCn2ccnc2)ccc(O[C@@H]2O[C@H](CO)[C@H](O)[C@H](O)[C@H]2O)c1C#N` [Compound 5, β-D-galactopyranoside of 2,3-dicyano-4-[4-(1-imidazolyl)-butoxy]-phenol], in series [5] (lysates from four GM1 gangliosidosis fibroblast lines), the “hydrolysis activity in GM1 gangliosidosis lysates relative to normal” value was 0.3-5.3 % of normal activity. Moreover, the “hydrolysis by lysates from normal fibroblasts” value in series [5] (lysates from three normal fibroblast lines) was “hydrolysed rapidly”.
